23 molecules from patent US7488740B2, “Substituted quinolin-4-ylamine analogues” (Neurogen Corporation, priority 2003, dated 2009) can be followed below.

For orientation: IC50 means the concentration that inhibits the measured activity by half.

In the assay the target is T1, human capsaicin receptor (Homo sapiens, UniProt Q8NER1).
T1 construct: A cDNA encoding full length human capsaicin receptor recited in U.S. Pat. No. 6,482,611 was subcloned in the plasmid pBK-CMV; expressed in transfected cells
T1 sequence (Q8NER1 whole entry): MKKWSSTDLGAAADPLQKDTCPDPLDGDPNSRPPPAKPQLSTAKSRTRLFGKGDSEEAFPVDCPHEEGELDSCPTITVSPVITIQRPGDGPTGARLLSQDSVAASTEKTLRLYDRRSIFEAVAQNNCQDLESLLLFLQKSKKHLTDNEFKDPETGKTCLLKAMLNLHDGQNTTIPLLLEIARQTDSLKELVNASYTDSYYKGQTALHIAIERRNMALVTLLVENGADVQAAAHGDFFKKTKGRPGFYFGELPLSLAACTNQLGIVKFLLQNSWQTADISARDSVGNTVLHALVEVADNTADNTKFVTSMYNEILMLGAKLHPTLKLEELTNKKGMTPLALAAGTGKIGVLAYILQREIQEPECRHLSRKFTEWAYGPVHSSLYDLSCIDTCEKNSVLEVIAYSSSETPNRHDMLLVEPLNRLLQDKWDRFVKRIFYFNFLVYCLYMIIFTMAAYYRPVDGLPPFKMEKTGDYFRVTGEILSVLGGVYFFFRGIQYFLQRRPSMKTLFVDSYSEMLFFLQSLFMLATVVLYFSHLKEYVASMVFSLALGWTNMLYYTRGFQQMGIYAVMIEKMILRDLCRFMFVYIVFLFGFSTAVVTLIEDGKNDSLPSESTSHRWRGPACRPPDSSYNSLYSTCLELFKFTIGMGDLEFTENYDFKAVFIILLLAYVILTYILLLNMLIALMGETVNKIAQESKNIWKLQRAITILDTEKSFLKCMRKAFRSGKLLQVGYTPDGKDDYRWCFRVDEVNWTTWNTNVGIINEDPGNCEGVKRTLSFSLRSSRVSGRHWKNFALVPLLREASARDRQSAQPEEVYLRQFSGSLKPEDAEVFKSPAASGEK
Put plainly: Calcium mobilization assay (Example 6). Format: cell-based. Particulars: concentration required to provide a 50% decrease in the fluorescence response of cells exposed to one IC50 of capsaicin. On the procedure: Human embryonic kidney (HEK293) cells were transfected with the pBK-CMV expression construct encoding the full length human capsaicin receptor using standard methods. The transfected cells were selected for two weeks in media containing G418 (400 μg/ml) to obtain a pool of stably transfected cells. Independent clones were isolated from this pool by limiting dilution to obtain clonal stable cell lines for use in subsequent experiments.
Cells transfected with expression plasmids (as described in Example 4) and thereby expressing human capsaicin receptor are seeded and grown to 70-90% confluency in FALCON black-walled, clear-bottomed 96-well plates (#3904, BECTON-DICKINSON, Franklin Lakes, N.J.). The culture medium is emptied from the 96 well plates and FLUO-3 AM calcium sensitive dye (Molecular Probes, Eugene, Oreg.) is added to each well (dye solution: 1 mg FLUO-3 AM, 440 μL DMSO and 440 μl 20% pluronic acid in DMSO, diluted 1:250 in Krebs-Ringer HEPES (KRH) buffer (25 mM HEPES, 5 mM KCl, 0.96 mM NaH2PO4, 1 mM MgSO4, 2 mM CaCl2, 5 mM glucose, 1 mM probenecid, pH 7.4), 50 μl diluted solution per well). Plates are covered with aluminum foil and incubated at 37° C. for 1-2 hours in an environment containing 5% CO2. After the incubation, the dye is emptied from the plates, and the cells are washed once with KRH buffer, and, resuspended in KRH buffer.
Agonist (e.g., olvanil, capsaicin, or RTX)-induced calcium mobilization is monitored using either FLUOROSKAN ASCENT (Labsystems, Franklin, Mass.) or FLIPR (fluorometric imaging plate reader system, Molecular Devices, Sunnyvale, Calif.) instruments. Varying concentrations of the antagonists ruthenium red or capsazepine (RBI; Natick, Mass.) are added to cells concurrently with agonist (e.g., 25-50 nM capsaicin). For agonist-induced calcium responses, data obtained between 30 and 60 seconds after agonist application are used to generate the IC50 values. KALEIDAGRAPH software (Synergy Software, Reading, Pa.) is used to fit the data to the equation: y=a*(1/(1+(b/x)^c)) to determine the IC50 for the response. In this equation, y is the maximum fluorescence signal, x is the concentration of the agonist or antagonist, a is the Emax, b corresponds to the IC50 value and c is the Hill coefficient.
To measure the ability of a test compound to antagonize (inhibit) the response of cells expressing capsaicin receptors to capsaicin or other vanilloid agonist, the IC50 of capsaicin is first determined. An additional 20 μl of KRH buffer and 1 μl DMSO is added to each well of cells, prepared as described above. 100 μl capsaicin in KRH buffer is automatically transferred by the FLIPR instrument to each well. An 8-point concentration response curve, with final capsaicin concentrations of 1 nM to 3 μM, is used to determine capsaicin IC50.
Test compounds are dissolved in DMSO, diluted in 20 μl KRH buffer so that the final concentration of test compounds in the assay well is between 1 μM and 5 μM, and added to cells prepared as described above. The 96 well plates containing prepared cells and test compounds are incubated in the dark, at room temperature for 0.5 to 6 hours. It is important that the incubation not continue beyond 6 hours. Just prior to determining the fluorescence response, 100 μl capsaicin in KRH buffer at twice the IC50 concentration determined from the concentration response curve is automatically added by the FLIPR instrument to each well of the 96 well plate for a final sample volume of 200 μl and a final capsaicin concentration equal to the IC50. The final concentration of test compounds in the assay wells is between 1 μM and 5 μM. […] Antagonists of the capsaicin receptor decrease this response by at least about 20%, preferably by at least about 50%, and most preferably by at least 80% as compared to matched control. The concentration of antagonist required to provide a 50% decrease is the IC50 for the antagonist, and is preferably below 1 micromolar, 100 nanomolar, 10 nanomolar or 1 nanomolar. […]
(In general: A change in cytosolic calcium serves as a functional read-out for many receptors and channels.)
For `COCCN(CCOC)Cc1cc(Nc2ccc(C(F)(F)F)cc2)c2ccc(-c3ncccc3C(F)(F)F)nc2n1` [Compound 50, 2-{[bis(2-methoxyethyl)amino]methyl}-N-[4-(trifluoromethyl)phenyl]-7-[3-(trifluoromethyl)pyridin-2-yl]-1,8-naphthyridin-4-amine], the IC50 is at most 1000 nM.
The value for `COCc1cc(Nc2ccc(C(F)(F)F)cc2)c2ccc(-c3ncccc3Cl)nc2n1` [Compound 51, 7-(3-chloropyridin-2-yl)-2-(methoxymethyl)-N-[4-(trifluoromethyl)phenyl]-1,8-naphthyridin-4-amine] was at most 1000 nM.
The value for `CC(C)COCc1cc(Nc2ccc(C(F)(F)F)cc2)c2ccc(-c3ncccc3Cl)nc2n1` [Compound 52, 7-(3-chloropyridin-2-yl)-2-(isobutoxymethyl)-N-[4-(trifluoromethyl)phenyl]-1,8-naphthyridin-4-amine] was at most 1000 nM.
The value for `COCc1cc(Nc2ccc(C(C)(C)O)cc2)c2ccc(-c3ncccc3Cl)nc2n1` [Compound 53, 2-(4-{[7-(3-chloropyridin-2-yl)-2-(methoxymethyl)-1,8-naphthyridin-4-yl]amino}phenyl)propan-2-ol] was at most 1000 nM; that for `CC(C)COCc1cc(Nc2ccc(F)cc2)c2ccc(-c3ncccc3C(F)(F)F)nc2n1` [Compound 54, N-(4-fluorophenyl)-2-(isobutoxymethyl)-7-[3-(trifluoromethyl)pyridin-2-yl]-1,8-naphthyridin-4-amine] was at most 1000 nM; that for `FC(F)(F)c1ccc(Nc2cc(CN3CCC3)nc3nc(-c4ncccc4C(F)(F)F)ccc23)cc1` [Compound 55, 2-(azetidin-1-ylmethyl)-N-[4-(trifluoromethyl)phenyl]-7-[3-(trifluoromethyl)pyridin-2-yl]-1,8-naphthyridin-4-amine] was at most 1000 nM.
For `CC(=O)c1ccc(Nc2cc(COCC(C)C)nc3nc(-c4ncccc4C(F)(F)F)ccc23)cc1` [Compound 56, 1-[4-({2-(isobutoxymethyl)-7-[3-(trifluoromethyl)pyridin-2-yl]-1,8-naphthyridin-4-yl}amino)phenyl]ethanone], the IC50 was at most 1000 nM.
As for `CC(C)COCc1cc(Nc2ccc(C(C)(C)O)cc2)c2ccc(-c3ncccc3C(F)(F)F)nc2n1` [Compound 57, 2-[4-({2-(isobutoxymethyl)-7-[3-(trifluoromethyl)pyridin-2-yl]-1,8-naphthyridin-4-yl}amino)phenyl]propan-2-ol], the concentration for half-maximal inhibition (IC50) is at most 1000 nM.
On to `CC(C)NCc1cc(Nc2ccc(C(F)(F)F)cc2)c2ccc(-c3ncccc3C(F)(F)F)nc2n1` [Compound 58, 2-[(isopropylamino)methyl]-N-[4-(trifluoromethyl)phenyl]-7-[3-(trifluoromethyl)pyridin-2-yl]-1,8-naphthyridin-4-amine], for which the IC50 was at most 1000 nM.
Take `CC(C)CNCc1cc(Nc2ccc(C(F)(F)F)cc2)c2ccc(-c3ncccc3C(F)(F)F)nc2n1` [Compound 59, 2-[(isobutylamino)methyl]-N-[4-(trifluoromethyl)phenyl]-7-[3-(trifluoromethyl)pyridin-2-yl]-1,8-naphthyridin-4-amine]: the IC50 was at most 1000 nM.
Take `CC(C)CN(C)Cc1cc(Nc2ccc(C(F)(F)F)cc2)c2ccc(-c3ncccc3C(F)(F)F)nc2n1` [Compound 60, 2-{[isobutyl(methyl)amino]methyl}-N-[4-(trifluoromethyl)phenyl]-7-[3-(trifluoromethyl)pyridin-2-yl]-1,8-naphthyridin-4-amine]: the half-inhibitory concentration (IC50) was at most 1000 nM.
As for `CC(C)COCc1cc(Nc2ccc(Br)cn2)c2ccc(-c3ncccc3C(F)(F)F)nc2n1` [Compound 61, N-(5-bromopyridin-2-yl)-2-(isobutoxymethyl)-7-[3-(trifluoromethyl)pyridin-2-yl]-1,8-naphthyridin-4-amine], the IC50 was at most 1000 nM.
The value for `COCc1cc(Nc2ccc(C(F)(F)F)cc2)c2ccc(-c3ncccc3F)nc2n1` [Compound 62, 7-(3-fluoropyridin-2-yl)-2-(methoxymethyl)-N-[4-(trifluoromethyl)phenyl]-1,8-naphthyridin-4-amine] was at most 1000 nM.
For `CC(=O)c1ccc(Nc2cc(COCC(C)C)nc3nc(-c4ncccc4Cl)ccc23)cc1` [Compound 63, 1-(4-{[7-(3-chloropyridin-2-yl)-2-(isobutoxymethyl)-1,8-naphthyridin-4-yl]amino}phenyl)ethanone] the value was at most 1000 nM; for `CC(C)COCc1cc(Nc2ccc(C(C)(C)O)cc2)c2ccc(-c3ncccc3Cl)nc2n1` [Compound 64, 2-(4-{[7-(3-chloropyridin-2-yl)-2-(isobutoxymethyl)-1,8-naphthyridin-4-yl]amino}phenyl)propan-2-ol], at most 1000 nM; for `CC(C)COCc1cc(Nc2ccc(S(C)(=O)=O)cc2)c2ccc(-c3ncccc3C(F)(F)F)nc2n1` [Compound 65, 2-(isobutoxymethyl)-N-[4-(methylsulfonyl)phenyl]-7-[3-(trifluoromethyl)pyridin-2-yl]-1,8-naphthyridin-4-amine], at most 1000 nM.
The value for `CC(O)COCc1cc(Nc2ccc(C(F)(F)F)cc2)c2ccc(-c3ncccc3C(F)(F)F)nc2n1` (centres unmarked) [Compound 66, 1-({4-{[4-(trifluoromethyl)phenyl]amino}-7-[3-(trifluoromethyl)pyridin-2-yl]-1,8-naphthyridin-2-yl}methoxy)propan-2-ol] was at most 1000 nM; that for `CC(=O)COCc1cc(Nc2ccc(C(F)(F)F)cc2)c2ccc(-c3ncccc3C(F)(F)F)nc2n1` [Compound 67, 1-({4-{[4-(trifluoromethyl)phenyl]amino}-7-[3-(trifluoromethyl)pyridin-2-yl]-1,8-naphthyridin-2-yl}methoxy)acetone] was at most 1000 nM.
`CC(C)COCc1cc(Nc2ccc(S(=O)(=O)N(C)C)cc2)c2ccc(-c3ncccc3C(F)(F)F)nc2n1` [Compound 68, 4-({2-(isobutoxymethyl)-7-[3-(trifluoromethyl)pyridin-2-yl]-1,8-naphthyridin-4-yl]amino)-N,N-dimethylbenzenesulfonamide]: the IC50 is at most 1000 nM.
For `CN(Cc1cc(Nc2ccc(C(F)(F)F)cc2)c2ccc(-c3ncccc3C(F)(F)F)nc2n1)S(C)(=O)=O` [Compound 70, N-methyl-N-({4-{[4-(trifluoromethyl)phenyl]amino}-7-[3-(trifluoromethyl)pyridin-2-yl]-1,8-naphthyridin-2-yl}methyl)methanesulfonamide], the IC50 is at most 1000 nM.
In the case of `CCS(=O)(=O)N(C)Cc1cc(Nc2ccc(C(F)(F)F)cc2)c2ccc(-c3ncccc3C(F)(F)F)nc2n1` [Compound 71, N-methyl-N-({4-{[4-(trifluoromethyl)phenyl]amino}-7-[3-(trifluoromethyl)pyridin-2-yl]-1,8-naphthyridin-2-yl}methyl)ethanesulfonamide], the IC50 was at most 1000 nM.
Regarding `CC(C)COCc1cc(Nc2ccc(S(=O)(=O)C(C)C)cc2)c2ccc(-c3ncccc3C(F)(F)F)nc2n1` [Compound 72, 2-(isobutoxymethyl)-N-[4-(isopropylsulfonyl)phenyl]-7-[3-(trifluoromethyl)pyridin-2-yl]-1,8-naphthyridin-4-amine], the IC50 was at most 1000 nM.
For `CCCS(=O)(=O)c1ccc(Nc2cc(COCC(C)C)nc3nc(-c4ncccc4C(F)(F)F)ccc23)cc1` [Compound 73, 2-(isobutoxymethyl)-N-[4-(propylsulfonyl)phenyl]-7-[3-(trifluoromethyl)pyridin-2-yl]-1,8-naphthyridin-4-amine] the value was at most 1000 nM.
